Measurements: ChEMBL document CHEMBL3102693 (ACS Med Chem Lett, 2013)
In brackets after ≈: the same amount, converted by molar mass.

biological target: T1, BirA bifunctional protein (Mycobacterium tuberculosis (strain CDC 1551 / Oshkosh), UniProt P96884); assay: Inhibition of biotin binding to Mycobacterium tuberculosis BirA by isothermal titration calorimetry
T1 sequence (P96884 whole entry): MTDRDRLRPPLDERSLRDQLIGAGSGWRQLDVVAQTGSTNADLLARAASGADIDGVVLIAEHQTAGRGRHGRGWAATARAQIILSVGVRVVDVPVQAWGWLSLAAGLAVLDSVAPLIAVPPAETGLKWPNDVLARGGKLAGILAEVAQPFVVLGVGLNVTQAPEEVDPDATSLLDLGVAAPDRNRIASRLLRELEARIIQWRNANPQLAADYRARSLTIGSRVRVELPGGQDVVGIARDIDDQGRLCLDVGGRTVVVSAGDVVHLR

SMILES	Kd [nM]
CC(C)(C)C#Cc1nc(N)c2ncn([C@@H]3O[C@H](COS(=O)(=O)NC(=O)CCCC[C@@H]4SC[C@@H]5NC(=O)N[C@@H]54)[C@@H](O)[C@H]3O)c2n1	11
Nc1nccc2c1ncn2[C@@H]1O[C@H](COS(=O)(=O)NC(=O)CCCC[C@@H]2SC[C@@H]3NC(=O)N[C@@H]32)[C@@H](O)[C@H]1O	0.04
Nc1ncnc2c1ncn2[C@@H]1O[C@H](CCS(=O)(=O)NC(=O)CCCC[C@@H]2SC[C@@H]3NC(=O)N[C@@H]32)[C@@H](O)[C@H]1O	0.1
Nc1nc2ccccc2c2c1ncn2[C@@H]1O[C@H](COS(=O)(=O)NC(=O)CCCC[C@@H]2SC[C@@H]3NC(=O)N[C@@H]32)[C@@H](O)[C@H]1O	0.23

system: Mycobacterium tuberculosis; assay: Antimicrobial activity against Mycobacterium tuberculosis H37Rv after 10 to 14 days by broth microdilution assay; type: functional

SMILES	MIC90 [µM]
CC(C)(C)C#Cc1nc(N)c2ncn([C@@H]3O[C@H](COS(=O)(=O)NC(=O)CCCC[C@@H]4SC[C@@H]5NC(=O)N[C@@H]54)[C@@H](O)[C@H]3O)c2n1	> 100
Nc1nccc2c1ncn2[C@@H]1O[C@H](COS(=O)(=O)NC(=O)CCCC[C@@H]2SC[C@@H]3NC(=O)N[C@@H]32)[C@@H](O)[C@H]1O	1.56 (≈ 0.892 µg/mL)
Nc1ncnc2c1ncn2[C@@H]1O[C@H](CCS(=O)(=O)NC(=O)CCCC[C@@H]2SC[C@@H]3NC(=O)N[C@@H]32)[C@@H](O)[C@H]1O	3.12 (≈ 1.78 µg/mL)
Nc1ncnc2c1ncn2[C@@H]1O[C@H](CNS(=O)(=O)NC(=O)CCCC[C@@H]2SC[C@@H]3NC(=O)N[C@@H]32)[C@@H](O)[C@H]1O	0.78 (≈ 0.446 µg/mL)
Nc1nc2ccccc2c2c1ncn2[C@@H]1O[C@H](COS(=O)(=O)NC(=O)CCCC[C@@H]2SC[C@@H]3NC(=O)N[C@@H]32)[C@@H](O)[C@H]1O	> 100
